Tests used:
[1] = Oral LD50 (Table 3); format: in vivo
[2] = test system: pentylenetetrazol-induced seizures; experiment: Pentylenetetrazol (Metrazol) seizure test; format: in vivo; conditions: pentylenetetrazol 120 mg/kg i.p. 30 minutes after compound
Description: Effect Against Pentylenetetrazol (Metrazol) Seizures. […] The pentylenetetrazol (metrazol), 120 mg/kg, was injected intraperitoneally 30 minutes after the oral administration of the respective graded doses of the compounds. Protection in this test was defined as a failure to detect even a single episode of clonic spasms of at least 5 seconds duration during a 30 minute period following the injection of the metrazol (F. M. Berger, 78:277, 1951). […] Exper. Med. Biol., against pentylenetetrazol seizures ([…] al., Epilepsia, 19: 193-408, 1978).

[3] = test system: maximal electroshock seizures; experiment: Maximal electroshock seizure test; format: in vivo; conditions: albino mice, intraperitoneal, 140 minutes after injection of test compound
Excerpt: Effect Against Maximal Electroshock Seizures. […] Given intraperitoneally to albino mice these compounds have afforded complete protection from maximal electroshock seizures for several hours. To test the maximal seizure anticonvulsant properties in albino mice weighing approximately 25 grams, first an electrical current was delivered via cranial electrodes at a voltage strength which induced a typical maximal electroconvulsant seizure in all the mice. Maximal tonic electrochock seizures were induced with 2 to 7 milliamperes being discharged at 18 volts, and at a frequency of 1000 per second. Abolition of the hindlimb tonic extension component of the seizure was defined as protection in this maximal electroshock test (L. S. Goodman et al., Jour. Pharm. Exper. Therap., 108: 168, 1953). The apparatus used was structured so that the current administered was independent of external resistance. There were 10 animals per group, and they were exposed to electroshock seizures at 20, 80 and 140 minutes after injection of the test compounds. The mice received graded doses of the compounds, and the dose protecting 50% of the animals was calculated biometrically.

[4] = Intraperitoneal LD50 (Table 2); format: in vivo
[5] = test system: nerve after-discharge; experiment: After-discharge on electrical nerve stimulation (neuropharmacological tests in cat and frog); conditions: cat and frog demonstrations
Excerpt: However, the molecular mechanism of the anticonvulsant action within neuronal cells remains unknown.

[6] = test system: pentylenetetrazol-induced seizures; conditions: literature (Krall et al.); cited from earlier work
[7] = man; cited from earlier work
[8] = test system: cat soleus muscle nerve preparation; experiment: Cat soleus muscle nerve preparation, neuromuscular function; format: in vivo; conditions: for Single impulse transmission: cat soleus muscle nerve preparation
Excerpt: Pirfenidone: Effect on Neuromuscular Function of the Cat Soleus Muscle Nerve Preparation. […] The action resembles that of phenytoin (J. A. Wada, Arch. Neurol., 34: 389–395, 1977).

[9] = Plasma concentration after oral dosing in man; format: in vivo
Description: In laboratory animals or in man, pirfenidone is well absorbed after oral administration. Plasma pirfenidone concentrations in man peak 1 to 4 hours after dosing. Metabolically, first order kinetics prevail over a daily dose range of 1200 to 3600 milligrams of pirfenidone in divided dosage (t.i.d.). Pirfenidone is cleared primarily by hepatic metabolism (S. Giri et al., Amer. Thoracic Soc. International Conf., Apr. 24-29, 1998) mainly hydroxylation and conjugation, and excreted primarily in the urine. […] The highly rapid and efficient oral bioavailability of pirfenidone in humans contrasts with that of oral phenytoin. In man, absorption of phenytoin after oral ingestion is slow, often variable and can be incomplete so that peak or effective concentrations in plasma and tissues may be delayed for 3 or more hours (E. Perucca and […], “Handbook of Exper. Pharmacol.,” Vol. 74: 831-855, 1985, Springer-Verlag, Berlin.)

[10] = test system: Bullfrog sciatic nerve trunk (de-sheathed); experiment: Frog sciatic nerve trunk high frequency stimulation; conditions: 10 mM
Excerpt: Pirfenidone: Effect on Frog Sciatic Nerve Trunk High Frequency Stimulation. Bullfrog sciatic nerve trunk (de-sheathed) was stimulated with trains of pulses at 200 Hertz in order to see if pirfenidone affected the nerve's ability to conduct high frequency impulses. […] Drugs that cause “use-dependent” block (high frequency failure) are generally regarded as potential anti-epileptic drugs.

Row | SMILES | ORAL LD50 [1] [mg/kg] | ORAL ED50 (dose protecting 50% of mice against pentylenetetrazol-induced seizures) [2] | I.P. ED50 (dose protecting 50% of mice against maximal electroshock seizures) [3] | I.P. LD50 [4] [mg/kg] | Block of the classical after-discharge when a nerve is electronically stimulated [5] | Activity against pentylenetetrazol seizures [6] | Delay of peak or effective concentrations in plasma and tissues after oral ingestion [7] [h] | Single impulse transmission [8] | Time of peak plasma concentration after dosing [9] [h] | Post-tetanic potentiation (PTP) ([8]; 50 mg/kg intravenously) | Conduction of high frequency impulses (200 Hertz pulse trains) [10] | Local anesthesia in the nerve [10]
1 | O=c1ccccn1-c1ccccc1 [1-phenyl-2-(1H)-pyridone, reference compound] | 540 ± 124 | No Activity | No Activity | >500 |  |  |  |  |  |  |  | 
2 | Cc1cccn(-c2ccccc2)c1=O [3-methyl-1-phenyl-2-(1H)-pyridone] | 650 ± 110 | No Activity | No Activity | >500 |  |  |  |  |  |  |  | 
3 | CCc1ccc(=O)n(-c2ccccc2)c1 [5-ethyl-1-phenyl-2-(1H)-pyridone] | 425 ± 48 | 285 ± 29 mg/kg | 60 ± 10 mg/kg | 500 ± 61 |  |  |  |  |  |  |  | 
4 | O=C1NC(=O)C(c2ccccc2)(c2ccccc2)N1 [phenytoin (Dilantin), phenytoin, reference compound] | 490 ± 35 | No Activity | 50 ± 15 mg/kg | 200 ± 45 | completely block | inactive | ≥ 3 | Neither pirfenidone nor phenytoin impair |  |  |  | 
5 | Cc1ccc(=O)n(-c2ccccc2)c1 [5-methyl-1-phenyl-2-(1H)-pyridone] | 610 ± 34 | 325 ± 41 mg/kg | 85 ± 11 mg/kg | 600 ± 43 | completely block |  |  | Neither pirfenidone nor phenytoin impair | 1 to 4 | suppresses the post-tetanic potentiation | caused definite high frequency failure | did not cause local anesthesia

— patent US6956044B1, “Compositions and methods for treatment of epilepsy” (priority 2000, dated 2005)
